Values of other authors, collected in patent US10369185B2, “Methods and compositions for enhancement of ability to concentrate” (KYOWA HAKKO BIO CO., LTD., priority 2014, dated 2019).

Conditions: alanylglutamine compared to glutamine; cited from earlier work

NC(=O)CC[C@H](N)C(=O)O [glutamine, reference compound]
solubility in aqueous solutions: low-solubility
